Measurements: ChEMBL document CHEMBL1201862, “PubChem BioAssay data set” (2004)
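Cultured in 96-well plates, cells were exposed to test compound for 48 hours across five concentrations. GI50: concentration for 50% inhibition of growth.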 Calls of active or inactive are those of the source. Rule as the data show it: active = GI50 up to about 1.1 µM and inactive = higher.

Tests used:
Test in all cases: inhibition of tumour cell growth, NCI panel, 48 h
[1] = tested on: UACC-257
[2] = tested on: UO-31
[3] = tested on: HOP-62
[4] = tested on: HCT-116
[5] = tested on: U-251
[6] = tested on: NCI-H522
[7] = tested on: KM12
[8] = tested on: EKVX
[9] = tested on: COLO 205
[10] = tested on: HCT-15
[11] = tested on: MDA-N
[12] = tested on: LOX IMVI
[13] = tested on: SK-OV-3
[14] = tested on: Malme-3M
[15] = tested on: SN12C
[16] = tested on: HCC 2998
[17] = tested on: NCI-H226
[18] = tested on: RPMI-8226
[19] = tested on: CAKI-1
[20] = tested on: 786-0

SMILES	GI50 [1]	GI50 [2]	GI50 [3]	GI50 [4]	GI50 [5]	GI50 [6]	GI50 [7]	GI50 [8]	GI50 [9]	GI50 [10] [µM]	GI50 [11]	GI50 [12]	GI50 [13]	GI50 [14]	GI50 [15]	GI50 [16]	GI50 [17]	GI50 [18]	GI50 [19]	GI50 [20]
O=C1NC(c2cccc(OCc3ccccc3)c2)Nc2ccccc21 (stereo not given)	1.36 µM (inactive)	4.55 µM (inactive)	0.359 µM (active)	0.0465 µM (active)	0.232 µM (active)	0.213 µM (active)	17.5 µM (inactive)	0.339 µM (active)	0.191 µM (active)	0.0805	0.0187 µM (active)	0.252 µM (active)	0.307 µM (active)	0.0897 µM (active)	0.119 µM (active)	0.243 µM (active)	0.274 µM (active)	0.0416 µM (active)	0.628 µM (active)	0.286 µM (active)
Cc1[nH]c(C)c(CN(C)C)c1CN(C)C	> 100 µM (inactive)	> 100 µM (inactive)	> 100 µM (inactive)	> 100 µM (inactive)	> 100 µM (inactive)	> 100 µM (inactive)	> 100 µM (inactive)	> 100 µM (inactive)	> 100 µM (inactive)	> 100	> 100 µM (inactive)	> 100 µM (inactive)	> 100 µM (inactive)	> 100 µM (inactive)	> 100 µM (inactive)	> 100 µM (inactive)	> 100 µM (inactive)	> 100 µM (inactive)	> 100 µM (inactive)	> 100 µM (inactive)
OCCNc1ncnc2[nH]cnc12	> 100 µM (inactive)	> 100 µM (inactive)	> 100 µM (inactive)	> 100 µM (inactive)	> 100 µM (inactive)	> 100 µM (inactive)	> 100 µM (inactive)	> 100 µM (inactive)	> 100 µM (inactive)	> 100	> 100 µM (inactive)	> 100 µM (inactive)	> 100 µM (inactive)	> 100 µM (inactive)	> 100 µM (inactive)	> 100 µM (inactive)	> 100 µM (inactive)	> 100 µM (inactive)	> 100 µM (inactive)	> 100 µM (inactive)
COc1ccc(/C=C2/N/C(=N\N=C/C(O)C(O)C(O)C(O)CO)NC2=O)cc1 (stereo not given)	> 100 µM (inactive)	> 100 µM (inactive)	> 100 µM (inactive)	> 100 µM (inactive)	> 100 µM (inactive)	> 100 µM (inactive)	> 100 µM (inactive)	> 100 µM (inactive)	> 100 µM (inactive)	> 100	> 100 µM (inactive)	> 100 µM (inactive)	> 100 µM (inactive)	> 100 µM (inactive)	> 100 µM (inactive)	> 100 µM (inactive)	> 100 µM (inactive)	> 100 µM (inactive)	> 100 µM (inactive)	> 100 µM (inactive)
COc1ccc(/N=C(Nc2ccc(OC)cc2)/C(=N/c2ccc(OC)cc2)Nc2ccc(OC)cc2)cc1	> 100 µM (inactive)	5.25 µM (inactive)	> 100 µM (inactive)	> 100 µM (inactive)	> 100 µM (inactive)	> 100 µM (inactive)	14.7 µM (inactive)	> 100 µM (inactive)	> 100 µM (inactive)	> 100	> 100 µM (inactive)	> 100 µM (inactive)	> 100 µM (inactive)	> 100 µM (inactive)	> 100 µM (inactive)	> 100 µM (inactive)	> 100 µM (inactive)	5.66 µM (inactive)	> 100 µM (inactive)	> 100 µM (inactive)
COCOc1cc(OCOC)cc(C(=O)Oc2ccccc2)c1	> 100 µM (inactive)	78.5 µM (inactive)	> 100 µM (inactive)	> 100 µM (inactive)	> 100 µM (inactive)	48.3 µM (inactive)	> 100 µM (inactive)	91.4 µM (inactive)	> 100 µM (inactive)	> 100	> 100 µM (inactive)	> 100 µM (inactive)	> 100 µM (inactive)	> 100 µM (inactive)	> 100 µM (inactive)	> 100 µM (inactive)	> 100 µM (inactive)	61.7 µM (inactive)	> 100 µM (inactive)	> 100 µM (inactive)
C[N+]1=C2[B-](C(C)(C)C)=[N+](C(C)(C)C)[B-]2(C(C)(C)C)[N+](C)=C2[B-](C(C)(C)C)=[N+](C(C)(C)C)[B-]21C(C)(C)C (stereo not given)	> 100 µM (inactive)	> 100 µM (inactive)	> 100 µM (inactive)	> 100 µM (inactive)	> 100 µM (inactive)	> 100 µM (inactive)	> 100 µM (inactive)	> 100 µM (inactive)	> 100 µM (inactive)	> 100	> 100 µM (inactive)	> 100 µM (inactive)	> 100 µM (inactive)	> 100 µM (inactive)	> 100 µM (inactive)	> 100 µM (inactive)	> 100 µM (inactive)	> 100 µM (inactive)	> 100 µM (inactive)	> 100 µM (inactive)
N#CC(C#N)=C(N)/C(C#N)=C/c1cc(O)c(O)c(Br)c1	72.4 µM (inactive)	42.4 µM (inactive)	> 69.7 µM (inactive)	37.8 µM (inactive)	53 µM (inactive)	40.5 µM (inactive)	75.9 µM (inactive)	52.8 µM (inactive)	52.2 µM (inactive)	48.8	99.5 µM (inactive)	42 µM (inactive)	> 93.1 µM (inactive)	85.7 µM (inactive)	> 69.3 µM (inactive)	> 74 µM (inactive)	21.1 µM (inactive)	> 100 µM (inactive)	> 100 µM (inactive)	> 78.2 µM (inactive)
CN(C)Cc1cc(/N=N/c2ccc(Cl)cc2)cc(CN(C)C)c1O	16.2 µM (inactive)	1.52 µM (inactive)	2.58 µM (inactive)	4.85 µM (inactive)	7.24 µM (inactive)	1.77 µM (inactive)	6.55 µM (inactive)	> 10 µM (inactive)	3.99 µM (inactive)	6.52	13.2 µM (inactive)	3.1 µM (inactive)	17.1 µM (inactive)	14.7 µM (inactive)	11.4 µM (inactive)	10.5 µM (inactive)	4.39 µM (inactive)	12.8 µM (inactive)	12.1 µM (inactive)	5.53 µM (inactive)
